In ChEMBL document CHEMBL3397017, “Discovery of a new series of potent prostacyclin receptor agonists with in vivo activity in rat” (Bioorg Med Chem Lett, 2015):
pEC50: −log10 of the molar value. Calls of active or inactive are those of the source. No cut-off for these calls is given here.

What was measured:
Prostacyclin receptor [1] = biological target: Prostacyclin receptor (Rattus norvegicus, UniProt P43253); experiment: Agonist activity at rat recombinant IP receptor expressed in CHO-K1 cells incubated for 1 hr by HTRF cAMP assay; format: functional, cell-based
Prostacyclin receptor [2] = biological target: T1, Prostacyclin receptor (Homo sapiens, UniProt P43119); experiment: Agonist activity at human recombinant IP receptor expressed in CHO-K1 cells incubated for 1 hr by HTRF cAMP assay; format: functional, cell-based
[3] = biological target: Prostacyclin receptor (Rattus norvegicus) (UniProt P43253); experiment: Intrinsic activity at rat recombinant IP receptor expressed in CHO-K1 cells incubated for 1 hr by HTRF cAMP assay relative to 1 uM iloprost; format: functional, cell-based
Prostacyclin receptor [4] = biological target: T1, Prostacyclin receptor; experiment: Intrinsic activity at human recombinant IP receptor expressed in CHO-K1 cells incubated for 1 hr by HTRF cAMP assay relative to 1 uM iloprost; format: functional, cell-based
[5] = biological target: T2, Prostaglandin D2 receptor (Homo sapiens, UniProt Q13258); experiment: Agonist activity at human recombinant DP1 receptor expressed in melanophores assessed as induction of pigment redistribution incubated for 90 mins
T2 sequence (Q13258 whole entry): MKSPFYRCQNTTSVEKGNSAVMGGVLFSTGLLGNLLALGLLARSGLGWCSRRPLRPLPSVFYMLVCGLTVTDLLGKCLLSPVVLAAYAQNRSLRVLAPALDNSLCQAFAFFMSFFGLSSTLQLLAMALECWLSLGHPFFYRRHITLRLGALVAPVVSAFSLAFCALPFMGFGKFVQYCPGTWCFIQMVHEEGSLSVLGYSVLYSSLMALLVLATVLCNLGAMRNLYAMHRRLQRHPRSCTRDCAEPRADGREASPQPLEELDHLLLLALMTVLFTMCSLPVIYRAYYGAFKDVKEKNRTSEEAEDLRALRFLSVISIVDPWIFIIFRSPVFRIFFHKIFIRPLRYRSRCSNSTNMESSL

Liver microsome [6] = experiment: Stability in human liver microsomes; format: ADME
Liver microsome [7] = experiment: Stability in rat liver microsomes; format: ADME
Homo sapiens = organism: Homo sapiens; experiment: Selectivity index, ratio of EC50 for human recombinant DP1 receptor to EC50 for human recombinant IP receptor
[8] = biological target: T2, Prostaglandin D2 receptor; experiment: Agonist activity at human recombinant DP1 receptor by melanophore assay
[9] = Half life in sc dosed rat; format: ADME, organism-based; conditions: in vivo
Rattus norvegicus [10] = experiment: Prevention of right ventricular weight increase in rat model of monocrotaline-induced pulmonary arterial hypertension at 10 mg/kg, sc administered twice daily for 21 days relative to sham animal (reference value: 19 no unit); format: functional, Heart right ventricle
Rattus norvegicus [11] = experiment: Prevention of right ventricular weight increase in rat model of monocrotaline-induced pulmonary arterial hypertension at 1 mg/kg, sc administered twice daily for 21 days relative to sham animal (reference value: 19 no unit); format: functional, Heart right ventricle; conditions: route subcutaneous
Rattus norvegicus [12] = experiment: Prevention of right ventricular weight increase in rat model of monocrotaline-induced pulmonary arterial hypertension administered subcutaneously twice daily for 21 days; format: functional, organism-based; conditions: Heart right ventricle
Rattus norvegicus [13] = experiment: Prevention of right ventricular weight increase in rat model of monocrotaline-induced pulmonary arterial hypertension at 30 mg/kg, sc administered twice daily for 21 days relative to sham animal (reference value: 19 no unit); format: functional, Heart right ventricle
Rattus norvegicus [14] = experiment: Improvement in right ventricular systolic pressure in rat model of monocrotaline-induced pulmonary arterial hypertension at 10 mg/kg, sc administered twice daily for 21 days; format: functional, organism-based; design: dose 10 mg/kg; conditions: Heart right ventricle
[15] = Half life in iv dosed rat; format: ADME, organism-based; conditions: in vivo
[16] = Oral bioavailability in rat; format: ADME, organism-based; conditions: in vivo

Prostacyclin receptor (Rattus norvegicus), sequence (P43253 whole entry): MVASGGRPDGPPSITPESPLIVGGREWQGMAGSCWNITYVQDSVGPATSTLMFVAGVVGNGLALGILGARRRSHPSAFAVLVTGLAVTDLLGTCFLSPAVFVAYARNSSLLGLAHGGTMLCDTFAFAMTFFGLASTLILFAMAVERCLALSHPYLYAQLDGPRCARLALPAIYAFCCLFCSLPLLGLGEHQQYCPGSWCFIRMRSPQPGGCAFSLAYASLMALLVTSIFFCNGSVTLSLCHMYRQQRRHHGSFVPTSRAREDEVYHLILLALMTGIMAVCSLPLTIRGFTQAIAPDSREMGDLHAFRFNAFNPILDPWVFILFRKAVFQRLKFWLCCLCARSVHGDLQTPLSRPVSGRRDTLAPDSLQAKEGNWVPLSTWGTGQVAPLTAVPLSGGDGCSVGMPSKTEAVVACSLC
Prostacyclin receptor (Rattus norvegicus, UniProt P43253), sequence (P43253 whole entry): as above
T1 sequence (P43119 whole entry): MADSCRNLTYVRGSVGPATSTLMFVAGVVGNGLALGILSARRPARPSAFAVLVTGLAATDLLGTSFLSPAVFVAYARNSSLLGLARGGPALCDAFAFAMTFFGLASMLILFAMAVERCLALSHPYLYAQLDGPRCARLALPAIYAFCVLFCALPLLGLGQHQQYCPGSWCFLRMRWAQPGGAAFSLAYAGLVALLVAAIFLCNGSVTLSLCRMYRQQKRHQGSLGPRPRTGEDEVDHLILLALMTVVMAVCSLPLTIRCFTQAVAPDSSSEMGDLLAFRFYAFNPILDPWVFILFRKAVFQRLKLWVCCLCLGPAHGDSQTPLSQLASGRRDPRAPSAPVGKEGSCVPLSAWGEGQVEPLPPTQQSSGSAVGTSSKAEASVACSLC

Structure (SMILES) | pEC50 (Prostacyclin receptor [1]) | pEC50 (Prostacyclin receptor [2]) | Intrinsic activity [3] [%] | Intrinsic activity (Prostacyclin receptor [4]) [%] | pEC50 [5] | Stability (Liver microsome [6]) | Stability (Liver microsome [7]) | also measured
O=C(O)COc1cccc2c1CCC(Cn1nc(-c3ccccc3)c(-c3ccccc3)cc1=O)C2 (racemic) | 5.66 | 6.01 | 70 | 60 | 7.68 |  |  | 
COc1ccc(-c2cc(=O)n(CC3CCc4c(cccc4OCC(=O)O)C3)nc2-c2ccccc2)cc1 (racemic) | < 5.00 | 5.57 |  | 47 |  | Unstable | Unstable | 
COc1cccc(-c2cc(=O)n(CC3CCc4c(cccc4OCC(=O)O)C3)nc2-c2ccccc2)c1 (racemic) | 6.51 | 7.22 | 96 | 88 | 7.77 | Unstable | Unstable | 
Cc1cccc(-c2cc(=O)n(CC3CCc4c(cccc4OCC(=O)O)C3)nc2-c2ccccc2)c1 (racemic) | 6.43 | 6.74 | 72 | 97 | 7.60 |  |  | 
O=C(O)COc1cccc2c1CCC(Cn1nc(-c3ccccc3)c(-c3cccc(F)c3)cc1=O)C2 (racemic) | 6.05 | 6.42 | 97 | 63 | 7.36 |  |  | 
O=C(O)COc1cccc2c1CCC(Cn1nc(-c3ccccc3)c(-c3cccc(Cl)c3)cc1=O)C2 (racemic) | 6.44 | 7.22 | 62 | 77 | 7.21 |  |  | 
COc1cccc(-c2cc(=O)n(CC3CCc4c(cccc4OCC(=O)O)C3)nc2-c2ccccc2)c1F (racemic) | 6.46 | 7.43 | 85 | 97 | 8.22 | Unstable | Unstable | 
COc1cccc(-c2nn(CC3CCc4c(cccc4OCC(=O)O)C3)c(=O)cc2-c2ccccc2)c1 (racemic) | < 5.00 | 5.76 |  | 87 |  | Unstable | Unstable | 
O=C(O)COc1cccc2c1CCC(Cn1nc(-c3cccc(F)c3)c(-c3ccccc3)cc1=O)C2 (racemic) | 5.63 | 5.97 | 99 | 88 |  |  |  | 
COc1ccc(-c2nn(CC3CCc4c(cccc4OCC(=O)O)C3)c(=O)cc2-c2ccccc2)cc1 (racemic) | 7.90 | 8.07 | 93 | 80 | 8.77 | Unstable | Unstable | 
Cc1ccc(-c2nn(CC3CCc4c(cccc4OCC(=O)O)C3)c(=O)cc2-c2ccccc2)cc1 (racemic) | 6.92 | 7.62 | 99 | 67 |  |  |  | 
O=C(O)COc1cccc2c1CCC(Cn1nc(-c3ccc(F)cc3)c(-c3ccccc3)cc1=O)C2 (racemic) | 5.82 | 6.94 | 93 | 89 |  |  |  | 
COc1ccc(-c2nn(CC3CCc4c(cccc4OCC(=O)O)C3)c(=O)cc2-c2ccccc2)c(F)c1 (racemic) | 6.95 | 7.70 | 76 | 78 | 7.51 | Unstable | Unstable | 
COc1ccc(-c2nn(CC3CCc4c(cccc4OCC(=O)O)C3)c(=O)cc2-c2ccccc2)cc1F (racemic) | 7.29 | 8.00 | 75 | 80 | 8.52 | Unstable | Unstable | 
COc1cccc(-c2cc(=O)n(CC3CCc4c(cccc4OCC(=O)O)C3)nc2-c2ccc(C)cc2)c1 (racemic) | 7.55 | 8.02 | 107 | 81 | 7.96 |  |  | 
COc1cccc(-c2cc(=O)n(CC3CCc4c(cccc4OCC(=O)O)C3)nc2-c2ccc(F)cc2)c1 (racemic) | 6.21 | 7.21 | 102 | 91 | 7.62 |  |  | 

Structure (SMILES) | pEC50 (Prostacyclin receptor [1]) | pEC50 (Prostacyclin receptor [2]) | Intrinsic activity [3] [%] | Intrinsic activity (Prostacyclin receptor [4]) [%] | pEC50 [5] | Stability (Liver microsome [6]) | Stability (Liver microsome [7]) | also measured
O=C(O)COc1cccc2c1CCC(Cn1ncc(-c3ccccc3)c(-c3ccccc3)c1=O)C2 (racemic) | 6.59 | 7.00 | 88 | 75 | 6.74 |  |  | 
COc1cccc(-c2cnn(CC3CCc4c(cccc4OCC(=O)O)C3)c(=O)c2-c2ccccc2)c1 (racemic) | 6.16 | 6.85 | 81 | 101 | 7.32 | Unstable | Unstable | 
O=C(O)COc1cccc2c1CCC(Cn1ncc(-c3cccc(F)c3)c(-c3ccccc3)c1=O)C2 (racemic) | 6.39 | 7.22 | 103 | 82 | 7.06 |  |  | 
O=C(O)COc1cccc2c1CCC(Cn1ncc(-c3cccc(Cl)c3)c(-c3ccccc3)c1=O)C2 (racemic) | 6.59 | 7.07 | 98 | 93 |  |  |  | 
COc1ccc(-c2cnn(CC3CCc4c(cccc4OCC(=O)O)C3)c(=O)c2-c2ccccc2)cc1 (racemic) | < 5.52 | 5.97 |  | 73 |  | Unstable | Unstable | 
O=C(O)COc1cccc2c1CCC(Cn1ncc(-c3ccccc3F)c(-c3ccccc3)c1=O)C2 (racemic) | 6.38 | 6.92 | 99 | 106 | 7.51 |  |  | 
O=C(O)COc1cccc2c1CCC(Cn1ncc(-c3cccc(F)c3F)c(-c3ccccc3)c1=O)C2 (racemic) | 6.96 | 7.42 | 101 | 87 | 7.44 | Stable | Stable | Ratio EC50 (Homo sapiens): 10; pEC50 [8]: 6.40; half-life [9]: 2.5 h; fold change (FC) (Rattus norvegicus [10]; route subcutaneous): 9; fold change (FC) (Rattus norvegicus [11]): 9; Activity (Rattus norvegicus [12]): Dose-dependent effect; fold change (FC) (Rattus norvegicus [13]; route subcutaneous): 13; Activity (Rattus norvegicus [14]): Active
COc1cccc(-c2cnn(CC3CCc4c(cccc4OCC(=O)O)C3)c(=O)c2-c2ccccc2)c1F (racemic) | 7.40 | 8.00 | 98 | 78 | 7.40 | Unstable | Unstable | 
O=C(O)COc1cccc2c1CCC(Cn1ncc(-c3ccccc3)c(-c3ccccc3F)c1=O)C2 (racemic) | 6.43 | 6.85 | 116 | 91 |  |  |  | 
O=C(O)COc1cccc2c1CCC(Cn1ncc(-c3ccccc3)c(-c3cccc(F)c3)c1=O)C2 (racemic) | 6.10 | 6.59 | 121 | 100 |  |  |  | 
O=C(O)COc1cccc2c1CCC(Cn1ncc(-c3ccccc3)c(-c3ccc(F)cc3)c1=O)C2 (racemic) | 6.77 | 7.70 | 104 | 80 |  |  |  | 
COc1ccc(-c2c(-c3ccccc3)cnn(CC3CCc4c(cccc4OCC(=O)O)C3)c2=O)cc1 (racemic) | 7.96 | 8.40 | 105 | 72 |  | Unstable | Unstable | 
COc1ccc(-c2c(-c3ccccc3)cnn(CC3CCc4c(cccc4OCC(=O)O)C3)c2=O)cc1F (racemic) | 6.76 | 7.07 | 100 | 84 |  | Unstable | Unstable | 
O=C(O)COc1cccc2c1CCC(Cn1ncc(-c3cccc(F)c3F)c(-c3ccc(F)cc3)c1=O)C2 (racemic) | 6.58 | 7.48 | 103 | 94 | 7.38 |  |  | 
O=C(O)COc1cccc2c1CC[C@@H](Cn1ncc(-c3cccc(F)c3F)c(-c3ccc(F)cc3)c1=O)C2 (racemic) | 6.70 | 8.22 | 100 | 98 | 7.32 |  |  | pEC50 [8]: 6.85; half-life [15]: 2 h; Activity (Rattus norvegicus [10]; Heart right ventricle): inactive; bioavailability [16]: 76%; Activity (Rattus norvegicus [13]; Heart right ventricle): inactive
